These results are taken from paper PMC11820409, “Synthesis and Evaluation of the AhR Activity of Indolo[3,2-b]carbazole Derivatives” (Molecules, 2025).

Like-named read-outs stand apart in the source and are kept apart here.

Data set [1] deals with T1, AhR (Mus musculus, UniProt P30561).
T1 construct: cells that were stably transfected with a luciferase reporter gene; endogenous in cells; host or cells: H1L7.5c3 (mouse)
As to the kind of experiment: AhR induction, luciferase reporter gene (CALUX), mouse H1L7.5c3 cells. Type of data set: cell-based. The procedure: (§1) The activity on AhR of the synthesized compounds was evaluated in cells that were stably transfected with a luciferase reporter gene. They were tested in four different cell lines, namely in human (HG2L7.5c1), mouse (H1L7.5c3), rat (H4L7.5c2) and guinea pig (G16L7.5c1) cells.
(§2) The synthesized alkaloids were evaluated for their ability to induce AhR in four different cell lines, more specifically in human (HG2L7.5c1), mouse (H1L7.5c3), rat (H4L7.5c2) and guinea pig (G16L7.5c1) cells that were stably transfected with a luciferase reporter gene. The results were calculated in EC50 (M) and compared to those of dioxin (TCDD), the principal ligand of the receptor. The protocol followed is described below.
(§3) Human, mouse, rat and guinea pig cells were grown in 100 mm cell culture plates (Corning Glass Works; Corning, NY, USA) using a sterile technique, maintained in alpha-minimum essential media (α-MEM) supplemented with 10% (v/v) fetal bovine serum (FBS) and G418 (1 mg/mL), and incubated at >80% humidity and 37◦C. For the CALUX analysis, plates of stable cell clones (approximately 80–100% confluent) were trypsinized and resuspended in 20 mL α-MEM. An aliquot (100 μL) of the indicated cell suspension was added into sterile 96-well tissue culture plates (Corning), and the plates were incubated for 24 h prior to ligand exposure, allowing the cells to reach confluence. Prior to ligand addition, the wells were washed with 1 × phosphate-buffered saline (PBS), and then, cells were incubated with the indicated concentration of DMSO (10 μL/mL) or corresponding solutions of TCDD or tested compounds in DMSO for 6 h or 24 h at 37 °C. After incubation, the cells were washed twice with PBS, 100 μL of 1 × Lysis buffer (Promega; Madison, WI, USA) was added to each well, and the plate was placed on a plate shaker at room temperature until the cells were lysed (approximately 20 min). Luciferase activity was measured using an automated microplate luminometer (Anthos Lucy2, Anthos Labtec Instruments, Wals/Salzburg, Austria) in enhanced flash mode with the automatic injection of 50 μL of Promega-stabilized luciferase reagent. Examples of the induction curves of the tested compounds are available in the Supplementary Materials.

Data set [2] has as its target T2, AhR (Rattus norvegicus, UniProt P41738).
T2 construct: cells that were stably transfected with a luciferase reporter gene; endogenous in cells; host or cells: H4L7.5c2 (rat)
T2 sequence (P41738 10-853): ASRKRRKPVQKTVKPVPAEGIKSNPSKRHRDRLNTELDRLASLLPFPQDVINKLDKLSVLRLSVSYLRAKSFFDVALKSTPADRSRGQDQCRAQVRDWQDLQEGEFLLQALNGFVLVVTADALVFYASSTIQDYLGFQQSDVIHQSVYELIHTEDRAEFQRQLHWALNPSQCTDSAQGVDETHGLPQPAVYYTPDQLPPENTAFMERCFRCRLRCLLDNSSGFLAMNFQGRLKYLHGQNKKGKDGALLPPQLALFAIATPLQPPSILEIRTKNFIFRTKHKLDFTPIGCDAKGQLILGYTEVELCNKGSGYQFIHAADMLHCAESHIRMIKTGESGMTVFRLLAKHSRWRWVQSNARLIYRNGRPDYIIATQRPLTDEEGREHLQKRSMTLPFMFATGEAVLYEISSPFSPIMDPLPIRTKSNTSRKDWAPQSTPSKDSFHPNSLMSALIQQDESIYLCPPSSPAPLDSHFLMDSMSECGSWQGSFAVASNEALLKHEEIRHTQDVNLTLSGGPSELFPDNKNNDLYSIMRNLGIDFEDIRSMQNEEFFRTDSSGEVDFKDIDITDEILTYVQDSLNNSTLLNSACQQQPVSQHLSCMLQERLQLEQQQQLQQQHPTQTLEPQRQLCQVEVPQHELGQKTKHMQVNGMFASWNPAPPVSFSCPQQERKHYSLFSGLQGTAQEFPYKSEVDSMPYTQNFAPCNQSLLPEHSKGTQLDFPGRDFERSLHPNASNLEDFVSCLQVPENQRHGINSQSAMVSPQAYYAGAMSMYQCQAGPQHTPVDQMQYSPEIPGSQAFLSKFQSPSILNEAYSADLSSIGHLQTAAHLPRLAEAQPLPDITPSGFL
Briefly: AhR induction, luciferase reporter gene (CALUX), rat H4L7.5c2 cells. The class given is cell-based. The following applies: 6 h incubation. The method, then: as §1, §2, §3

The target of data set [3] is T3, AhR (Cavia porcellus, UniProt Q6J287).
T3 construct: cells that were stably transfected with a luciferase reporter gene; endogenous in cells; host or cells: G16L7.5c1 (guinea pig)
T3 sequence (Q6J287 1-846): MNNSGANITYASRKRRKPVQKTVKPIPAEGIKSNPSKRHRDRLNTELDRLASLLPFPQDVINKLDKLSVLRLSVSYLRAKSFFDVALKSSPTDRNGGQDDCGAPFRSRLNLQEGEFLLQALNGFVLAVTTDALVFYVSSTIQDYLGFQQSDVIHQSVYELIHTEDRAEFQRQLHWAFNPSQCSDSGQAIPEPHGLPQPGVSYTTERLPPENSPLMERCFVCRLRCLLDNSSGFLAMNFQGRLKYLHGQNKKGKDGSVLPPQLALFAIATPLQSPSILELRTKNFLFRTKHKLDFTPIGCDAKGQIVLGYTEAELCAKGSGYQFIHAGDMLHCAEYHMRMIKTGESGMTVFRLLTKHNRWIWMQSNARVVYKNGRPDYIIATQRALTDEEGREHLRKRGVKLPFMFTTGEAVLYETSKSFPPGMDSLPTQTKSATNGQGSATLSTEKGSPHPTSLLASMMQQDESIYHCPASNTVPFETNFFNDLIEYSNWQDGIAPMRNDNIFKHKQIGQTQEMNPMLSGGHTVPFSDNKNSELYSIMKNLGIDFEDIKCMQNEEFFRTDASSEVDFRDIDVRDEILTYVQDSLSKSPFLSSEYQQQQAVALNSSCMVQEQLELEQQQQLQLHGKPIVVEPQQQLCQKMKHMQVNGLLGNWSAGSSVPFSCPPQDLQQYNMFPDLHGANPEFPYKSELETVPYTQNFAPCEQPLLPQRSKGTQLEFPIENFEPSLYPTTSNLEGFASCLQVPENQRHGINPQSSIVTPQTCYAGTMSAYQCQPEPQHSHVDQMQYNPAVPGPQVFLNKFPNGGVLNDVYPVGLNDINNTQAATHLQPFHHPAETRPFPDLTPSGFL
Briefly: AhR induction, luciferase reporter gene (CALUX), guinea pig G16L7.5c1 cells. Type of data set: cell-based. The following applies: 6 h incubation. The method, then: as §1, §2, §3

Data set [4] concerns the target T4, AhR (Homo sapiens, UniProt P35869).
T4 construct: cells that were stably transfected with a luciferase reporter gene; endogenous in cells; host or cells: HG2L7.5c1 (human)
T4 sequence (P35869 11-848): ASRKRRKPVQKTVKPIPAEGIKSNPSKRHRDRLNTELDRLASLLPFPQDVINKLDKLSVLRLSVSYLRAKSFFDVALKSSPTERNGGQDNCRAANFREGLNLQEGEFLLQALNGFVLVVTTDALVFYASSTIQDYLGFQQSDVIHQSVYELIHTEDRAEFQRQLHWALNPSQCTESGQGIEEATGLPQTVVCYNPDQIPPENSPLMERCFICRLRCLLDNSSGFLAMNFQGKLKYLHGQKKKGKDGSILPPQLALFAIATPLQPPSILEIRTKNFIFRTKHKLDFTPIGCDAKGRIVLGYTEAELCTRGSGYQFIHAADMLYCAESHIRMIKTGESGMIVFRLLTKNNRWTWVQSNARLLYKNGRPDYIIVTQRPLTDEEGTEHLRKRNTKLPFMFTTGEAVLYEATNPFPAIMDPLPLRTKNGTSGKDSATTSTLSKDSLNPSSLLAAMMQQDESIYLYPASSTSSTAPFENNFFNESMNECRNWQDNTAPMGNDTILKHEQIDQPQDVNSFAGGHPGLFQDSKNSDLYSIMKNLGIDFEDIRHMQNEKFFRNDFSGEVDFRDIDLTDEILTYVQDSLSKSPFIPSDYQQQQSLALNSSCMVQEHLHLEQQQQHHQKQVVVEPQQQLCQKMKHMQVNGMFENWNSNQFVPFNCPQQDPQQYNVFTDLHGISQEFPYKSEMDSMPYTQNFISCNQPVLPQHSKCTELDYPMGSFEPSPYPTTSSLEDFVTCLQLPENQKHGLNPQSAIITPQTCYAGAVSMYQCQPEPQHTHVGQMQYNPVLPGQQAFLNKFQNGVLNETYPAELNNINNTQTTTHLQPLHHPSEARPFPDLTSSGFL
Briefly: AhR induction, luciferase reporter gene (CALUX), human HG2L7.5c1 cells. The class given is cell-based. The following applies: 6 h incubation.
Method: The synthesized alkaloids were evaluated for their ability to induce AhR in four different cell lines, more specifically in human (HG2L7.5c1), mouse (H1L7.5c3), rat (H4L7.5c2) and guinea pig (G16L7.5c1) cells that were stably transfected with a luciferase reporter gene [41]. The results were calculated in EC50 (M) and compared to those of dioxin (TCDD), the principal ligand of the receptor.
Human, mouse, rat and guinea pig cells were grown in 100 mm cell culture plates (Corning Glass Works; Corning, NY, USA) using a sterile technique, maintained in alpha-minimum essential media (α-MEM) supplemented with 10% (v/v) fetal bovine serum (FBS) and G418 (1 mg/mL), and incubated at >80% humidity and 37◦C. For the CALUX analysis, plates of stable cell clones (approximately 80–100% confluent) were trypsinized and resuspended in 20 mL α-MEM. An aliquot (100 μL) of the indicated cell suspension was added into sterile 96-well tissue culture plates (Corning), and the plates were incubated for 24 h prior to ligand exposure, allowing the cells to reach confluence. […] Luciferase activity was measured using an automated microplate luminometer (Anthos Lucy2, Anthos Labtec Instruments, Wals/Salzburg, Austria) in enhanced flash mode with the automatic injection of 50 μL of Promega-stabilized luciferase reagent.

In data set [5] the test system is AhR. Details: method as in PMID 31292477. The following applies: fold reduction vs 6-FICZ; cited from earlier work.
The mark [6] stands for this setting: mouse H1L7.5c3 cells, 6 h incubation, read-out: EC50, 6 h Mouse.

T1 sequence (P30561 10-805 limits assumed): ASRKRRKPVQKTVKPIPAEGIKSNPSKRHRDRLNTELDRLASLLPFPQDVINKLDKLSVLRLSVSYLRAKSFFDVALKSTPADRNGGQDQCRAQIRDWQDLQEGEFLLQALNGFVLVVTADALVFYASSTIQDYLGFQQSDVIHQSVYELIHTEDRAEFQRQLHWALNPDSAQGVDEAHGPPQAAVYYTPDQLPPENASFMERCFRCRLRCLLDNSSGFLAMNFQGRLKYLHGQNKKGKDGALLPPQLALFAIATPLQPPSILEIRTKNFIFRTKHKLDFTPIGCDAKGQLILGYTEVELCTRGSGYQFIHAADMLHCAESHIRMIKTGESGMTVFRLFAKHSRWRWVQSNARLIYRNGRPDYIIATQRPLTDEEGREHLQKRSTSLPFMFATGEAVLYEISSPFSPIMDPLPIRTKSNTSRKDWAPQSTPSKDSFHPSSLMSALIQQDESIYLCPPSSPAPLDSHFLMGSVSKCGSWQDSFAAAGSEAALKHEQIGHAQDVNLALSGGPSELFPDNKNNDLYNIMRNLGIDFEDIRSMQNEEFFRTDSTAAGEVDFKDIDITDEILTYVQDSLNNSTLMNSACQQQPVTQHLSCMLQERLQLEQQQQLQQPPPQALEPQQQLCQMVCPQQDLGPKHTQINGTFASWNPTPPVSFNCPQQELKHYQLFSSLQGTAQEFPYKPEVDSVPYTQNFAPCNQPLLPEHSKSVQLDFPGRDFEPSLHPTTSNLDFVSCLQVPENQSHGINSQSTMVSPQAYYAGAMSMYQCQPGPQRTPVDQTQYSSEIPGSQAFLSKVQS
T1 sequence (P11499 whole entry partner): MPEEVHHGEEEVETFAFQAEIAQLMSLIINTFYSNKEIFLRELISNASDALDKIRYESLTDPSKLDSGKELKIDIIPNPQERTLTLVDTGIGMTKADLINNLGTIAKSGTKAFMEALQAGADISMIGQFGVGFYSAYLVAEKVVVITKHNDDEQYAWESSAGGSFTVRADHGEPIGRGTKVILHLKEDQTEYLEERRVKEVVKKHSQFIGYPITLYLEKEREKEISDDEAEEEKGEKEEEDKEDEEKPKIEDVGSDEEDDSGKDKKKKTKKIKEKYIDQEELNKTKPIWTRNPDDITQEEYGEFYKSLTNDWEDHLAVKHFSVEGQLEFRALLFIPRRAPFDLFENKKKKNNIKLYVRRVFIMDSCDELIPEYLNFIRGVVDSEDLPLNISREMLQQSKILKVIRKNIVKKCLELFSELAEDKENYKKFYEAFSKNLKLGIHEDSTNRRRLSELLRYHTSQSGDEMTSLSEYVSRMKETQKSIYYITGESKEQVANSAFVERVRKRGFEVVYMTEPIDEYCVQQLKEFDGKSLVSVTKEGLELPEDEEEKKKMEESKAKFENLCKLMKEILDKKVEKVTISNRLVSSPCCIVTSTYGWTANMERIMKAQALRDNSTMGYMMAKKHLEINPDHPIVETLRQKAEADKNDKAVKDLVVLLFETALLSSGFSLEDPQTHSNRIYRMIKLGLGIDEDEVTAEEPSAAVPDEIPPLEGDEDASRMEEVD
T1 sequence (O08915 whole entry partner): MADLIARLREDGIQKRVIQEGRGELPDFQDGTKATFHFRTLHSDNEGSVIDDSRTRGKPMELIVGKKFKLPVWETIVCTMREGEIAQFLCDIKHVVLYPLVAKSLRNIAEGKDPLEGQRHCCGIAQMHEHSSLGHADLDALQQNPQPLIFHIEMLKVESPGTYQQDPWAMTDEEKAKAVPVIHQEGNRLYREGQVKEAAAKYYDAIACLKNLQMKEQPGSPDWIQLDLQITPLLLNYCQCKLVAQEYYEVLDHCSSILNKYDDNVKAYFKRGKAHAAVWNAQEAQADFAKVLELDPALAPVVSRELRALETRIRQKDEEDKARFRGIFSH

Regarding `O=Cc1c2[nH]c3ccccc3c2cc2[nH]c3ccccc3c12` [Compound 1, 6-Formylindolo[3,2-b]carbazole], the EC50 – broadly, the concentration giving half of the maximal effect – came out at 0.482 nM on AhR [1] (setting [6]), 0.0799 nM at AhR [2] and 0.577 nM on AhR [3].
Take `c1ccc2c(c1)[nH]c1cc3c(cc12)[nH]c1ccccc13` [Compound 2, indolo[3,2-b]carbazole]: the EC50 at AhR [1] (setting [6]) amounted to 0.98 nM; at AhR [2], 0.0095 nM; at AhR [3], 0.174 nM; at AhR [4] it was 0.64 nM.
In the same order, the values of `Cc1c2[nH]c3ccccc3c2cc2[nH]c3ccccc3c12` [Compound 3, 6-methylindolo[3,2-b]carbazole] are 0.91 nM, 0.0588 nM, 0.0913 nM and 0.308 nM.
Turning to `OCc1c2[nH]c3ccccc3c2cc2[nH]c3ccccc3c12` [Compound 4, 6-Hydroxymethylindolo[3,2-b]carbazole], the EC50 at AhR [1] (setting [6]) amounted to 0.922 nM; on AhR [2], 0.473 nM; at AhR [3] it was 5.77 nM; on AhR [4], 4.52 nM. Further, the “reduced activity in comparison to 6-FICZ” value with AhR [5] was “more than 10 folds”.
`Cc1c2[nH]c3ccccc3c2c(Br)c2[nH]c3ccccc3c12` [Compound 5, 6-Methyl-12-bromoindolo[3,2-b]carbazole]: the EC50 on AhR [1] stood at 0.92 nM; on AhR [2] it was 0.0598 nM; on AhR [3], 0.0993 nM; at AhR [4], 0.328 nM.
In the case of `Clc1cc2c(cc1Cl)Oc1cc(Cl)c(Cl)cc1O2` [TCDD, reference compound], the EC50 on AhR [1] (setting [6]) is 0.1 nM; at AhR [2], 0.059 nM; on AhR [3], 0.1 nM; at AhR [4] it was 0.57 nM.
